These results are taken from ChEMBL document CHEMBL1131869, “Chlorophenylmethyl benzothiadiazine dioxides derivatives: potent human cytomegalovirus inhibitors” (Bioorg Med Chem Lett, 1999).

The structures appear in SMILES notation.

Test [1] deals with Human betaherpesvirus 5. Put plainly: Antiviral activity against clinical isolates of human origin CMV-strainC. In kind it is functional, organism-based.
Test [2] has as its system Human betaherpesvirus 5. Put plainly: Cytotoxicity against Human cytomegalovirus (AD169) strain(HCMV). In kind it is functional.
The test system of test [3] is Human betaherpesvirus 5. Put plainly: Antiviral activity against clinical isolates of human origin CMV-strain B. In kind it is functional, organism-based.
In test [4] the test system is Human betaherpesvirus 5. Nature of the test: Antiviral activity against Human cytomegalovirus (AD169) strain(HCMV). In kind it is functional, organism-based.
The subject of test [5] is Human betaherpesvirus 5. Nature of the test: Antiviral activity against clinical isolates of human origin CMV-strainA. Format: functional, organism-based.

As usually defined, the IC50 is the midpoint of a concentration-inhibition curve. For orientation: CC50 means the concentration giving 50% cytotoxicity. Take `Nc1nc2c(ncn2COC(CO)CO)c(=O)[nH]1` [GANCICLOVIR]: the 50% inhibitory concentration (IC50) turned out to be 3.9 µM in the test on Human betaherpesvirus 5 [1], 3.9 µM with Human betaherpesvirus 5 [3], 5.9 µM in the test on Human betaherpesvirus 5 [4] and 5.9 µM with Human betaherpesvirus 5 [5]. Moreover, the CC50 in the test on Human betaherpesvirus 5 [2] was greater than 98 µM.
The compound `O=C1c2ccccc2N(Cc2ccccc2)S(=O)(=O)N1Cc1ccccc1Cl` yielded a CC50 with Human betaherpesvirus 5 [2] greater than 60 µM. The IC50 in the test on Human betaherpesvirus 5 [4] amounted to 12.1 µM.
Regarding `O=C1c2ccccc2N(Cc2ccccc2)S(=O)(=O)N1Cc1ccccc1`, the 50% cytotoxic concentration (CC50) in the test on Human betaherpesvirus 5 [2] is greater than 66 µM. Besides, the half-inhibitory concentration (IC50) with Human betaherpesvirus 5 [4] worked out at 5.2 µM.
Regarding `O=C1c2ccccc2N(Cc2ccc(Cl)cc2)S(=O)(=O)N1COCc1ccccc1`, the cytotoxic concentration (CC50) with Human betaherpesvirus 5 [2] was greater than 56 µM. Further, 6.7 µM corresponded to half-maximal inhibition in the test with Human betaherpesvirus 5 [4] (IC50).
Regarding `O=C1c2ccccc2N(Cc2ccccc2Cl)S(=O)(=O)N1Cc1ccccc1Cl`, the CC50 with Human betaherpesvirus 5 [2] was greater than 60 µM. This compound had an IC50 with Human betaherpesvirus 5 [4] of 3.6 µM.
Take `O=S1(=O)N=C(OCc2ccccc2)c2ccccc2N1Cc1ccccc1`: the CC50 in the test on Human betaherpesvirus 5 [2] is greater than 66 µM. The compound also gave an IC50 in the test with Human betaherpesvirus 5 [4] of 7.9 µM.
On to `O=C1c2ccccc2N(Cc2ccc(Cl)cc2)S(=O)(=O)N1Cc1ccccc1`, for which the IC50 in the test with Human betaherpesvirus 5 [1] is 2.4 µM; in the test on Human betaherpesvirus 5 [3] it was 1.2 µM; in the test on Human betaherpesvirus 5 [4], 3.6 µM; with Human betaherpesvirus 5 [5], 2.4 µM. In the test with Human betaherpesvirus 5 [2], the CC50 is greater than 60 µM.
The compound `O=C1c2ccccc2N(Cc2ccc(Cl)cc2)S(=O)(=O)N1Cc1ccc(Cl)cc1` came in with a CC50 in the test on Human betaherpesvirus 5 [2] greater than 60 µM. The compound also registered an IC50 with Human betaherpesvirus 5 [4] of 3.6 µM.
On the same counts, the results for `O=C1c2ccccc2N(Cc2ccccc2Cl)S(=O)(=O)N1Cc1ccccc1` are greater than 60 µM and 4.8 µM.
On the same counts, the results for `O=C1c2ccccc2N(Cc2ccccc2Cl)S(=O)(=O)N1COCc1ccccc1` are greater than 56 µM and 18 µM.
As for `O=C1c2ccccc2N(Cc2cccc(Cl)c2)S(=O)(=O)N1Cc1ccccc1`, the CC50 in the test on Human betaherpesvirus 5 [2] was greater than 60 µM. In the test with Human betaherpesvirus 5 [4], this compound returned an IC50 of 3.6 µM.
On the same counts, the results for `O=C1c2ccccc2N(Cc2ccccc2)S(=O)(=O)N1Cc1ccc(Cl)cc1` are greater than 60 µM and 6 µM.
On the same counts, the results for `O=C1c2ccccc2N(COCc2ccccc2)S(=O)(=O)N1COCc1ccccc1` are greater than 57 µM and 34 µM.
